Biological target: motilin receptor (Motilin) (Homo sapiens, UniProt O43193)
Assay: GPCR array functional assay (Eu-GTP binding) on GAPS coated porous slide, Motilin receptor
Type: biochemical
Details: agonist at 1 μM, 10 nM Eu-GTP, 3 μM GDP, 1 hour incubation, time-resolved fluorescence
Method: 2) Assays performing—the printed GPCR arrays are then incubated with assay buffers containing GTP analogue probes in the presence or absence of receptor agonist for certain time (e.g., 45 minutes), and at the end of incubation period the assay solutions are removed, the slides are rinsed with GTP wash buffer and dried with nitrogen;
3) Imaging—when Eu-GTP is used as a probe, the slides are then directly scanned using a time-resolved fluorescence imaging system; and, if biotin-GTPγS is used as a probe, an extra incubation step is often performed before imaging. For example, the array is then further incubated with Gold particles labeled streptavadin in order to detect bounded biotin-GTPγS, resonance light scattering imaging system is then used.
The EuGTP assay buffer contained 10 nM Eu-GTP, 50 mM HEPES buffer, pH 7.4, 3 μM GDP, 10 mM MgCl2, 100 mM NaCl, and 0.1% protein blocker. At the end of the incubation, the assay buffers were removed. Afterwards, slides were washed, dried and imaged with in-house developed time-resolved fluorescence imaging system.

motilin receptor (Motilin), sequence (O43193 whole entry, species assumed): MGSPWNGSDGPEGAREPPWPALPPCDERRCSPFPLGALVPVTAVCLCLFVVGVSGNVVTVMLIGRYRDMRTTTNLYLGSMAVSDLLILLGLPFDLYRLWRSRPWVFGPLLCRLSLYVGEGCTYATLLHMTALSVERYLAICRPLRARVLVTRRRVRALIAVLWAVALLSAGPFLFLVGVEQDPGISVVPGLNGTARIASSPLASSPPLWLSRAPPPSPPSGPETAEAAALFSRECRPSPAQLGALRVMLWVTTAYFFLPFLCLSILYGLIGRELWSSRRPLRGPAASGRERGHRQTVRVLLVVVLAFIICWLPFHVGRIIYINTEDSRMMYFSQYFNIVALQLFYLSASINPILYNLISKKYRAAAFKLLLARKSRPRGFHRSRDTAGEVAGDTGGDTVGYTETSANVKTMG

CC[C@H](C)[C@H](NC(=O)[C@@H]1CCCN1C(=O)[C@@H](NC(=O)[C@@H](N)Cc1ccccc1)C(C)C)C(=O)N[C@@H](Cc1ccccc1)C(=O)N[C@H](C(=O)N[C@@H](Cc1ccc(O)cc1)C(=O)NCC(=O)N[C@@H](CCC(=O)O)C(=O)N[C@@H](CC(C)C)C(=O)N[C@@H](CCC(N)=O)C(=O)N[C@@H](CCCNC(=N)N)C(=O)N[C@@H](CCSC)C(=O)N[C@@H](CCC(N)=O)C(=O)N[C@@H](CCC(=O)O)C(=O)N[C@@H](CCCCN)C(=O)N[C@@H](CCC(=O)O)C(=O)N[C@@H](CCCNC(=N)N)C(=O)N[C@@H](CC(N)=O)C(=O)N[C@@H](CCCCN)C(=O)NCC(=O)N[C@@H](CCC(N)=O)C(=O)O)[C@@H](C)O [motilin]
binding of EuGTP to the GPCR microspots (receptor activation by agonist): increase the binding of EuGTP
